Results from US20020111274A1, “1-alkyl-3-[1-(substituted phenyl) benzotriazol-6-yl] uracils” (BASF Aktiengesellschaft, priority 2000, published 2002).

How the values were obtained:
Parameters in all cases: scale not given here
[1] = test system: CHEAL Lambsquarters, Common; assay: Preemergence herbicidal evaluation, CHEAL; assay type: in vivo, Chenopodium album, L.; conditions: preemergence
Method in brief: (§1)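 Visual ratings were taken four to five weeks after application. Before that, cups sown with seed in potting soil received a spray of compound dissolved in aqueous acetone, equivalent to about 0.013 to 0.800 kg/ha, and stood on greenhouse benches under conventional care.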

[2] = test system: TRZAWR Wheat, Winter, cv Riband; assay: Preemergence herbicidal evaluation, TRZAWR; assay type: in vivo, Triticum aestivum; conditions: preemergence
Method in brief: as §1

ZEAMX Corn, Field = assay: Postemergence herbicidal evaluation, ZEAMX; assay type: in vivo, Zea mays, L. (Sammel-Bezeichnung); conditions: postemergence spray, rated about two-three weeks after treatment
Method in brief: (§2)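 Seedlings grown about two weeks were sprayed with compound in 80/20 acetone/water containing 1.0% methylated seed oil, at the equivalent of about 0.006 to 0.400 kg/ha, through a nozzle at 40 psi. Plants were kept in the greenhouse and rated visually about two to three weeks after treatment.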

SETVI Foxtail, Green [3] = assay: Preemergence herbicidal evaluation, SETVI; assay type: in vivo, Setaria viridis, (L.) Beau; conditions: preemergence
Method in brief: as §1

AMBEL Ragweed, Common [4] = assay: Postemergence herbicidal evaluation, AMBEL; assay type: in vivo, Ambrosia artemisifolia, L.; conditions: postemergence spray, rated about two-three weeks after treatment
Method in brief: as §2

ECHOG Barnyardgrass = assay: Postemergence herbicidal evaluation, ECHOG; assay type: in vivo, Echinochloa crus-galli, (L.) Beau; conditions: postemergence spray, rated about two-three weeks after treatment
Method in brief: as §2

[5] = test system: TRZAWR Wheat, Winter, cv Riband; assay: Postemergence herbicidal evaluation, TRZAWR; assay type: in vivo, Triticum aestivum; conditions: postemergence spray, rated about two-three weeks after treatment
Method in brief: as §2

[6] = test system: IPOHE Morningglory, Ivyleaf; assay: Postemergence herbicidal evaluation, IPOHE; assay type: in vivo, Ipomoea hederacea, (L.) Jacq.; conditions: postemergence spray, rated about two-three weeks after treatment
Method in brief: as §2

SETVI Foxtail, Green [7] = assay: Postemergence herbicidal evaluation, SETVI; assay type: in vivo, Setaria viridis, (L.) Beau; conditions: postemergence spray, rated about two-three weeks after treatment
Method in brief: as §2

AMBEL Ragweed, Common [8] = assay: Preemergence herbicidal evaluation, AMBEL; assay type: in vivo, Ambrosia artemisifolia, L.; conditions: preemergence
Method in brief: as §1

[9] = test system: IPOHE Morningglory, Ivyleaf; assay: Preemergence herbicidal evaluation, IPOHE; assay type: in vivo, Ipomoea hederacea, (L.) Jacq.; conditions: preemergence
Method in brief: as §1

[10] = test system: CHEAL Lambsquarters, Common; assay: Postemergence herbicidal evaluation, CHEAL; assay type: in vivo, Chenopodium album, L.; conditions: postemergence spray, rated about two-three weeks after treatment
Method in brief: as §2

## CCc1ccccc1-n1nnc2cc(F)c(-n3c(=O)cc(C(F)(F)F)n(C)c3=O)cc21 [Example 25]
[1]; rate 0.016 kg/ha
  CHEAL herbicidal rating: 9.0
[1]; rate 0.032 kg/ha
  CHEAL herbicidal rating: 9.0
[1]; rate 0.062 kg/ha
  CHEAL herbicidal rating: 9.0
[1]; rate 0.125 kg/ha
  CHEAL herbicidal rating: 9.0
[2]; rate 0.016 kg/ha
  TRZAWR herbicidal rating: 0.0
[2]; rate 0.032 kg/ha
  TRZAWR herbicidal rating: 0.0
[2]; rate 0.062 kg/ha
  TRZAWR herbicidal rating: 0.0
[2]; rate 0.125 kg/ha
  TRZAWR herbicidal rating: 2.0
ZEAMX Corn, Field; 0.008 kg/ha
  Postemergence herbicidal rating ZEAMX: 3.0
ZEAMX Corn, Field; 0.016 kg/ha
  Postemergence herbicidal rating ZEAMX: 3.5
ZEAMX Corn, Field; 0.032 kg/ha
  Postemergence herbicidal rating ZEAMX: 4.0
ZEAMX Corn, Field; 0.062 kg/ha
  Postemergence herbicidal rating ZEAMX: 5.0
SETVI Foxtail, Green [3]; rate 0.016 kg/ha
  SETVI herbicidal rating: 0.0
SETVI Foxtail, Green [3]; rate 0.032 kg/ha
  SETVI herbicidal rating: 3.5
SETVI Foxtail, Green [3]; rate 0.062 kg/ha
  SETVI herbicidal rating: 9.0
SETVI Foxtail, Green [3]; rate 0.125 kg/ha
  SETVI herbicidal rating: 9.0
AMBEL Ragweed, Common [4]; 0.008 kg/ha
  Postemergence herbicidal rating AMBEL: 0.0
AMBEL Ragweed, Common [4]; 0.016 kg/ha
  Postemergence herbicidal rating AMBEL: 0.0
AMBEL Ragweed, Common [4]; 0.032 kg/ha
  Postemergence herbicidal rating AMBEL: 2.0
AMBEL Ragweed, Common [4]; 0.062 kg/ha
  Postemergence herbicidal rating AMBEL: 2.0
ECHOG Barnyardgrass; 0.008 kg/ha
  Postemergence herbicidal rating ECHCG: 0.0
ECHOG Barnyardgrass; 0.016 kg/ha
  Postemergence herbicidal rating ECHCG: 0.0
ECHOG Barnyardgrass; 0.032 kg/ha
  Postemergence herbicidal rating ECHCG: 0.0
ECHOG Barnyardgrass; 0.062 kg/ha
  Postemergence herbicidal rating ECHCG: 0.0
[5]; 0.008 kg/ha
  Postemergence herbicidal rating TRZAWR: 1.5
[5]; 0.016 kg/ha
  Postemergence herbicidal rating TRZAWR: 2.5
[5]; 0.032 kg/ha
  Postemergence herbicidal rating TRZAWR: 3.0
[5]; 0.062 kg/ha
  Postemergence herbicidal rating TRZAWR: 3.0
[6]; 0.008 kg/ha
  Postemergence herbicidal rating IPOHE: 2.0
[6]; 0.016 kg/ha
  Postemergence herbicidal rating IPOHE: 3.0
[6]; 0.032 kg/ha
  Postemergence herbicidal rating IPOHE: 9.0
[6]; 0.062 kg/ha
  Postemergence herbicidal rating IPOHE: 9.0
SETVI Foxtail, Green [7]; 0.008 kg/ha
  Postemergence herbicidal rating SETVI: 0.0
SETVI Foxtail, Green [7]; 0.016 kg/ha
  Postemergence herbicidal rating SETVI: 0.0
SETVI Foxtail, Green [7]; 0.032 kg/ha
  Postemergence herbicidal rating SETVI: 3.0
SETVI Foxtail, Green [7]; 0.062 kg/ha
  Postemergence herbicidal rating SETVI: 7.0
AMBEL Ragweed, Common [8]; rate 0.016 kg/ha
  AMBEL herbicidal rating: 0.0
AMBEL Ragweed, Common [8]; rate 0.032 kg/ha
  AMBEL herbicidal rating: 0.0
AMBEL Ragweed, Common [8]; rate 0.062 kg/ha
  AMBEL herbicidal rating: 1.0
AMBEL Ragweed, Common [8]; rate 0.125 kg/ha
  AMBEL herbicidal rating: 3.5
[9]; rate 0.016 kg/ha
  IPOHE herbicidal rating: 0.0
[9]; rate 0.032 kg/ha
  IPOHE herbicidal rating: 4.5
[9]; rate 0.062 kg/ha
  IPOHE herbicidal rating: 5.5
[9]; rate 0.125 kg/ha
  IPOHE herbicidal rating: 6.5
[10]; 0.008 kg/ha
  Postemergence herbicidal rating CHEAL: 3.0
[10]; 0.016 kg/ha
  Postemergence herbicidal rating CHEAL: 9.0
[10]; 0.032 kg/ha
  Postemergence herbicidal rating CHEAL: 9.0
[10]; 0.062 kg/ha
  Postemergence herbicidal rating CHEAL: 9.0
